In patent publication US8101655B2, “Fluorescent dyes and complexes” (priority 2004, dated 2012):
Like-named read-outs stand apart in the source and are kept apart here. Blank lines part the entries; values can stand above or below the compound they belong to.

Experiments:
[1] = pKa of dyes and complexes (fluorescence titration)
Source text: By way of illustration, Table 1, below, lists a number of dyes, some prior to functionalisation, and complexes according to the present invention (in each X is O^−), together with their pKa values.

[2] = Fluorescence / colour response to pH; type: physicochemical; conditions: on tlc, compared with 2-[3,6-bisdimethylaminoxanth-9-ylium]-5-dimethylaminophenol
Source text: The dyes and complexes of the present invention show a negative fluorescence intensity response with increasing pH. […] Furthermore, the pals of these dyes and complexes may be varied by selection of the substituents R^5 and R^6, and by the inclusion of electron donating groups on the lowermost aryl ring, to give a range of dyes and complexes having pKa's particularly suited to cell analysis procedures.

- pKa [1]: 2.3
Compound: COCCOCCN(CCOCCOC)c1ccc(-c2c3ccc(=[N+](CCOCCOC)CCOCCOC)cc-3oc3cc(N(CCOCCOC)CCOCCOC)ccc23)c([O-])c1

Compound: 2-[3-diethylamino-6-dimethylamino-xanth-9-ylium]-5-dimethylaminophenol
- pH sensitivity [2]: same pH sensitivity

Compound: R1-Y=NHCSNC6H4CH2CH2; target=transferin; R2=Et; R3=Me; R4=Me; R5-Y2=Et; R6=Et: complex of a dye of formula (I) bonded to transferin
- pKa ([1]; Table 1, X is O-, dyes and complexes): 2.0
